Results taken from US8178509B2, “Method to treat sickle cell disease” (University of Virginia Patent Foundation, priority 2006, dated 2012).

Key:
C57BL/6 MAECs = experiment: Static WEHI monocyte adhesion assay on murine aortic endothelial cells; type: cell-based, C57BL/6 mice; details: murine TNFα 10 U/ml, positive control
Procedure: Adhesion of both sickle RBCs and leukocytes in SCD is believed dependent on endothelial activation. […] Murine aortic endothelial cells (MAECs) were prepared from C57BL/6 and NY-S (NY1DD) mice. In a static adhesion assay using WEHI monocytes activation of the endothelium as manifested by increasing monocyte adhesion can be quantified. MAECs prepared from C57BL/6 mice form a monolayer which is not highly activated as assessed by the small number of adherent monocytes. As a positive control for endothelial activation C57BL/6 MAECs were stimulated with murine TNFα (10 U/ml). […] Clearly, the endothelium of NY-S (NY1DD) sickle mice is in a state of activation at baseline.
Aortic endothelial cells from C57BL/6J and NY-S (NY1DD) mice were harvested from the aorta under sterile conditions. A monocyte adhesion assay that utilizes primary MAECs and WEHI78/24 cells were performed according to Hatley et al. WEHI cells are labeled with calcein-AM using standard methods described by the manufacturer (Molecular Probes). For the adhesion assay, MAECs were cultured to confluency in a 48-well plate and incubated with 35,000 calcein-labeled WEHI cells/well for 30 min at 37° C. Non-adherent cells were rinsed, and adherent cells were fixed with 1% glutaraldehyde. The number of adherent monocytes within a 10×10 eyepiece grid at 40× magnification was counted using an epifluorescence microscopy. […]

NY-S (NY1DD) mice [1] = experiment: Pulmonary histology (H&E), hypoxia-induced vascular congestion; type: in vivo; details: 3 hour hypoxia (10% O2); Alzet mini-pump, 10 ng/kg/min, overnight, started prior to hypoxic stress
Procedure: Under normoxic conditions, while the lungs of the wild type mice are clear, there is a high incidence of focal vascular congestion in the NY-S (NY1DD) mice (FIGS. 6A & 6B, see arrows). The disseminated pink color throughout the section may be due to elevated numbers of possibly adherent capillary red cells. The extent of vascular congestion is exacerbated in the NY-S (NY1DD) mice following 3 hour of hypoxia (10% O2; FIG. 6c). The increased susceptibility of the NY-S (NY1DD) mice to hypoxia-induced lung injury is evidenced both as an increase in the total area of involvement and the size of the vessels congested (see arrow, FIG. 6C).

NY-S (NY1DD) mice [2] = experiment: Unrestrained whole-body plethysmography during hypoxic stress; type: in vivo; details: 3 hour hypoxic stress (8% O2), Alzet pump, 10 ng/kg/min, overnight
Procedure: Clinicians have disclosed that breathing disorders can occur in SCD patients during vaso-occlusive crisis (VOC). […] Pain-associated shallow breathing during sickle crisis may contribute to the pathogenesis of acute chest syndrome. To characterize the extent of hypoxia-induced lung injury in NY-S (NY1DD) mice, pulmonary function was assessed using unrestrained whole-body plethysmography during and after exposure to hypoxic air. Naïve NY-S (NY1DD) mice were compared to NY-S (NY1DD) mice which had been treated with ATL146e (Alzet pump, 10 ng/kg/min, overnight). […] Plexiglas chambers (4 in diameter) are connected to a direct airflow sensor (Buxco Max II, Buxco Electronics). Constant airflow through the chambers is maintained at 70 ml/min. The flow signals are amplified by a channel amplifier (EMKA Technologies), converted to a digital signal, and recorded using IOX software (EMKA Technologies). The respiratory parameters minute ventilation (MV, ml/min), respiratory frequency (f, breaths/min), expiratory time (TE, msec), and relaxation time (RT, msec) are calculated and plotted as change over time. The chambers are calibrated by injecting 1 ml of air. The mice are placed unrestrained into the chambers and after a 30 min adjustment period, respiratory activity is recorded while the animal breathes either ambient air or hypoxic gas (8% O2).

NY-S (NY1DD) mice [3] = experiment: Gamma camera imaging of hypoxia-sensitive tracer BRU59-21 in lungs; type: in vivo; details: 3 hours hypoxia (10% O2)/1 hour reoxygenation; Alzet mini-pump, 10 ng/kg/min, O/N; untreated vs treated
Procedure: Animals were subject to 3 hours hypoxia (10% O2)/1 hour reoxygenation. After 30 minutes of reoxygenation the mice were given a bolus intra-jugular injection of BRU59-21 (˜300 μCi). At the end of the reoxygenation period planar gamma camera images were taken with a ten minute acquisition window. The images in FIG. 7 show tracer accumulation in the tissues of hypoxic C57BL/6 and NY-S (NY1DD) mice. […] There is a large non-specific signal present in the abdomen due to hepatic metabolism and clearance of the tracer via the intestinal tract. Anterior to the abdominal signal is a bilateral signal which is absent from the C57/B6 mice and localized to the lungs in the NY-S (NY1DD) mouse.
C57BL/6 and NY-S (NY1DD) mice were subject to 3 hour hypoxia/1 hour reperfusion (10% O2). Thirty minutes after the start of the reperfusion period the mice were anesthetized (ketamine 125 mg/kg; xylazine 12.5 mg/kg, IP) and given a bolus intra jugular injection of BRU59-21 (˜300 μCi). At the end of the reperfusion period planar gamma camera images were collected. Anesthetized mice were imaged side-by-side in planar mode directly on the inverted face of a low energy, high resolution (LEHR) collimator mounted on a Siemens Orbiter gamma camera (Siemens Medical Solutions USA, Inc., Malvern Pa.). […]

[4] = tested on: leukocyte interactions with the endothelium; experiment: Intravital microscopy of exteriorized cremaster muscle, leukocyte adhesion; type: in vivo, NY-S (NY1DD) mice; details: no hypoxia
Excerpt: An exteriorized cremaster muscle preparation was used to study the microcirculation in vivo as a means of assaying the effect of the test compounds, e.g., ATL146e, on leukocyte interactions with the endothelium. […] In this experiment, mice were not stressed with hypoxia, but the manipulation of the cremaster tissue for microscopic examination itself produces some rolling and adherence of leukocytes, probably due to release of chemokines from damaged tissue. Adherent leukocytes were defined as those which moved less than one circumference in an observational period (30 seconds/vessel). […]
Microscopic observations were made on a Zeiss intravital microscope (Axioskop, Carl Zeiss, Inc., Thomwood, N.Y.) with a saline immersion objective (SW 40/0.75) visualized under bright field illumination. […] Randomly selected venules with diameters between 19 and 54 μm were recorded for 1.5 minutes.
A MicroMotion DC30 video compression card (Pinnacle Systems, Mountain View, Calif.) was used to digitize video recordings from a JVC HR-53600U VHS recorder into a Macintosh computer (Adobe Premiere software). Digitized video clips were analyzed with the public domain NIH image program with custom-written macros. […] Individual comparisons between groups were calculated using a one-tailed t test with p<0.05.

platelets = experiment: Platelet aggregation (singlet loss) in platelet-rich plasma after in vivo pretreatment, ADP activation; parameters: species or system NY-S (NY1DD) mice; details: pretreated in vivo, Alzet mini-pump, 10 ng/kg/min, O/N; all doses of ADP added in vitro
Procedure: Adenosine 5′-diphosphate (ADP) is a critical mediator of platelet activation. Two members of the P2Y-receptor family (P2Y1, P2Y12) are responsible for the initiation and amplification of the aggregation response.
Mice were first anesthetized with the use of a vaporizer (Vapomatic, A.M. Bickford, INC., Wales Center, N.Y.) delivering 1.5% isoflurane (Abbott Laboratories, Chicago, Ill.). The animals were ventilated with 100% oxygen (tidal volume 0.3 mL; rate 125 breaths/min; respiratory/expiratory ratio 1; positive end-expiratory pressure (PEEP) was between 5 and 10 cm H2O) at a low rate of 0.8 L/min via an animal ventilator (Columbus Instruments, Columbus, Ohio).
Platelet isolation. […]
Platelet aggregation assay—single particle counting. […] The reaction was quenched with glutaraldehyde (1%), and platelet aggregation then evaluated by the loss of platelet singlets, using a resistive-particle counter. The loss of platelet singlets was expressed as a percent value of the control platelet count (platelet count in PRP incubated for 10 minutes in 37° C. in the absence of shear forces).

Compound | number of monocytes captured (endothelial activation) (C57BL/6 MAECs) | severity of hypoxia-induced vascular congestion in lung (NY-S (NY1DD) mice [1]) | minute volume (NY-S (NY1DD) mice [2]) | breathing frequency (NY-S (NY1DD) mice [2]; n=2 each group) | lung-specific BRU59-21 signal intensity in thoracic cavity (qualitative) (NY-S (NY1DD) mice [3]) | leukocyte adhesion (adherent leukocytes/field) ([4]; bolus injection, intraperitoneal, 5 μg/kg, 30 minutes prior to cremaster exteriorization) | leukocyte adhesion (adherent leukocytes/field) ([4]; infusion, Alzet mini-pump, 10 ng/kg/min, overnight) | platelet activation in platelet rich plasma (platelets)
TNFα | three-fold increase | – | – | – | – | – | – | –
CCNC(=O)C1OC(n2cnc3c(N)nc(C#CCC4CCC(C(=O)OC)CC4)nc32)C(O)C1O (centres unmarked) [ATL146e, 4-{3-[6-Amino-9-(5-ethylcarbamoyl-3,4-dihydroxy-tetrahydro-furan-2-yl)-9H-purin-2-yl]-prop-2-ynyl}cyclohexanecarboxylic acid methyl ester] | – | significantly reduced | respiratory stress of hypoxia was alleviated | significantly reduced | significantly more lung-specific signal in the untreated mice | pronounced reduction in leukocyte adhesion | pronounced reduction in leukocyte adhesion | reduced to below control levels
